Source: US20130143929A1, “FUNGICIDAL IMIDAZOLES” (EI DU PONT DE NEMOURS AND COMPANY, priority 2010, published 2013)
Marks after values point to notes of the source that are not given here.

Columns and labels:
Assay type in all cases: in vivo
[1] = tested on: Puccinia recondite f. sp. tritici (the causal agent of wheat leaf rust); assay: Test A: wheat leaf rust, preventive spray on wheat seedlings, visual disease rating; details: wheat leaf rust, preventive spray on wheat seedlings
How it was run: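 This was a preventive test: Puccinia recondite f. sp. tritici inoculum was applied one day after compound spray to run-off. Test suspensions were made in 50/50 acetone/water with 250 ppm surfactant, at 200 ppm (800 g/ha equivalent) or 40 ppm. Visual ratings of % disease control relative to controls were made after 24 h of saturated humidity and 7 growth-chamber days, all at 20° C.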

[2] = tested on: Septoria tritici (the causal agent of wheat leaf blotch); assay: Test B: wheat leaf blotch, preventive spray on wheat seedlings, visual disease rating; details: wheat leaf blotch, preventive spray on wheat seedlings
How it was run: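 Preventive test: Septoria tritici spores applied one day after run-off spraying of seedlings (200 ppm equals 800 g/ha; some tests 40 ppm). After 48 h at 24 °C saturated atmosphere and 19 days at 20 °C, disease scored visually as % control relative to untreated plants.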

[3] = tested on: Botrytis cinerea (the causal agent of tomato Botrytis); assay: Test C: tomato Botrytis, preventive spray on tomato seedlings, visual disease rating; details: tomato Botrytis, preventive spray on tomato seedlings
How it was run: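 Preventive test: B. cinerea spore inoculation one day after tomato seedlings were sprayed to run-off with compound suspended in 50/50 acetone–water plus 250 ppm surfactant. Plants held 48 h at 20° C in saturated air, then 3 days at 24° C; visual ratings scored 100 (full control) to 0 versus controls; some entries used 40 ppm.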

[4] = tested on: Blumeria graminis f. sp. tritici (also known as Erysiphe graminis f. sp. tritici, the causal agent of wheat powdery mildew); assay: Test D: wheat powdery mildew, preventive spray on wheat seedlings, visual disease rating; details: wheat powdery mildew, preventive spray on wheat seedlings
How it was run: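 Preventive test: seedlings sprayed to run-off and inoculated with powdery mildew spores one day later. Suspensions were made in 50/50 acetone/water with 250 ppm Trem 014 surfactant (200 ppm equals 800 g/ha). Visual ratings after 8 days at 20 °C give percent disease control versus controls.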

[5] = asterisk: 40 ppm test suspension
[6] = no asterisk (standard test suspension concentration, not 40 ppm)

| SMILES | Test A rating (100 = 100% disease control, 0 = no disease control relative to the controls) [1, 5] | Test B rating (100 = 100% disease control, 0 = no disease control relative to the controls) [2, 5] | Test C rating (100 = 100% disease control, 0 = no disease control relative to the controls) [3, 5] | Test D rating (100 = 100% disease control, 0 = no disease control relative to the controls) [4, 5] | Test A rating (100 = 100% disease control, 0 = no disease control relative to the controls) [1, 6] [%] | Test B rating (100 = 100% disease control, 0 = no disease control relative to the controls) [2, 6] [%] | Test C rating (100 = 100% disease control, 0 = no disease control relative to the controls) [3, 6] [%] | Test D rating (100 = 100% disease control, 0 = no disease control relative to the controls) [4, 6] [%] |
| --- | --- | --- | --- | --- | --- | --- | --- | --- |
| COc1ccc(C(O)c2c(Br)nc(C)n2-c2c(F)cccc2Cl)c(F)c1 (racemic) [compound 275] | 100* % | 100* % | 100* % | 99* % |  |  |  |  |
| COc1ccc(C(O)c2c(Br)nc(C)n2-c2c(F)cccc2Cl)c(Cl)c1 (racemic) [compound 276] | 100* % | 100* % | 100* % | 100* % |  |  |  |  |
| COc1ccc(C(O)c2c(Cl)nc(C)n2-c2c(F)cccc2Cl)c(F)c1 (racemic) [compound 277] | 100* % | 100* % | 100* % | 97* % |  |  |  |  |
| COc1ccc(C(O)c2c(Cl)nc(C)n2-c2c(F)cccc2Cl)c(Cl)c1 (racemic) [compound 278] | 100* % | 100* % | 100* % | 97* % |  |  |  |  |
| COc1cc(OC)cc(-n2c(C)nc(Br)c2C(O)c2c(F)cc(F)cc2F)c1 (racemic) [compound 279] | 0* % | 0* % | 0* % | 0* % |  |  |  |  |
| COc1cc(F)ccc1C(O)c1c(Br)nc(C)n1-c1c(F)cccc1F (racemic) [compound 281] | 92* % | 0* % | 0* % | 0* % |  |  |  |  |
| COc1ccc(C(O)c2cnc(C)n2-c2ccc(F)cc2F)c(Cl)c1 (racemic) [compound 282] | 92* % | 63* % | 0* % | 0* % |  |  |  |  |
| COc1ccc(C(O)c2cnc(C)n2-c2ccc(F)cc2F)c(F)c1 (racemic) [compound 283] | 41* % | 0* % | 0* % | 0* % |  |  |  |  |
| COc1ccc(C(O)c2c(Br)nc(C)n2-c2ccc(F)cc2F)c(F)c1 (racemic) [compound 284] | 100* % | 100* % | 41* % | 0* % |  |  |  |  |
| COc1ccc(C(O)c2c(Br)nc(C)n2-c2ccc(F)cc2F)c(Cl)c1 (racemic) [compound 285] | 99* % | 88* % | 0* % | 0* % |  |  |  |  |
| COc1ccc(C(O)c2c(Br)nc(Br)n2-c2c(F)cccc2F)c(Cl)c1 (racemic) [compound 286] | 100* % | 100* % | 100* % | 97* % |  |  |  |  |
| Cc1nc(Br)n(-c2c(F)cc(Cl)cc2F)c1C(O)c1ccc(F)cc1F (racemic) [compound 299] | 100* % | 100* % | 100* % | 87* % |  |  |  |  |
| COc1ccc(C(O)c2cnc(C)n2-c2ccc(F)cc2Cl)c(F)c1 (racemic) [compound 300] | 95* % | 95* % | 0* % | 0* % |  |  |  |  |
| Cc1ncc(C(O)c2ccc(F)cc2Br)n1-c1ccc(F)cc1F (racemic) [compound 301] | 97* % | 19* % | 24* % | 0* % |  |  |  |  |
| Cc1nc(Cl)n(-c2c(F)cc(F)cc2Br)c1C(O)c1ccc(F)cc1F (single isomer, unassigned) [compound 16] |  |  |  |  | 100 | 100 | 100 | 100 |
| Cc1nc(Cl)n(-c2c(F)cc(F)cc2Br)c1C(O)c1ccc(F)cc1F (single isomer, unassigned) [compound 17] |  |  |  |  | 100 | 100 | 100 | 100 |
| OC(c1ccc(F)cc1F)c1c(Cl)nc(Cl)n1-c1ccc(F)cc1Cl (single isomer, unassigned) [compound 19] |  |  |  |  | 100 | 100 | 100 | 98 |
| OC(c1ccc(F)cc1F)c1c(Cl)nc(Cl)n1-c1ccc(F)cc1Cl (single isomer, unassigned) [compound 20] |  |  |  |  | 100 | 100 | 100 | 100 |
| OC(c1ccc(F)cc1F)c1c(Cl)nc(Cl)n1-c1ccc(Cl)cc1Cl (single isomer, unassigned) [compound 21] |  |  |  |  | 100 | 100 | 100 | 69 |
| OC(c1ccc(F)cc1F)c1c(Cl)nc(Cl)n1-c1ccc(Cl)cc1Cl (single isomer, unassigned) [compound 22] |  |  |  |  | 100 | 100 | 98 | 0 |
| Cc1nc(Cl)n(-c2ccc(F)cc2Cl)c1C(O)c1ccc(F)cc1F (single isomer, unassigned) [compound 27] |  |  |  |  | 100 | 100 | 100 | 99 |
| Cc1nc(Cl)n(-c2ccc(F)cc2Cl)c1C(O)c1ccc(F)cc1F (single isomer, unassigned) [compound 28] |  |  |  |  | 100 | 100 | 100 | 71 |
| OC(c1ccc(Cl)cc1)c1c(Cl)nc(Cl)n1-c1ccc(F)cc1Cl (single isomer, unassigned) [compound 47] |  |  |  |  | 100 | 100 | 99 | 0 |
